# Biological target: T1, human MAGL (Homo sapiens, UniProt Q99685)
# T1 construct: recombinant MAGL enzyme (aa 2-303 RBC, internal preparation)
# T1 sequence (Q99685 2-303): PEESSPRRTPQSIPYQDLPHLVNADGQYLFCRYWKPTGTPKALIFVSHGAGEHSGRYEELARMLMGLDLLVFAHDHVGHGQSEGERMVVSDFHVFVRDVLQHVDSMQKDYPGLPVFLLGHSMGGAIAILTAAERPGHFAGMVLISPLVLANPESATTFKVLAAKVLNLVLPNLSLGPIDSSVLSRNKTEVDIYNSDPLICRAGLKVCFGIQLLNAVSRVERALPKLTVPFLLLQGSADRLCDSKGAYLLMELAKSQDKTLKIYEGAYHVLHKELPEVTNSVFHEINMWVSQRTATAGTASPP
# Assay: MAGL inhibition potency, 4-nitrophenyl acetate (4NPA) hydrolysis, absorbance 405 nm (Example A)
# Assay type: biochemical
# Conditions: Method 2: Cayman Chemical MAGL enzyme, 10 nM; 4NPA substrate; read-out: Potency
# Description: The potency of certain compounds for inhibiting MAGL were obtained using the following assays.
# The monoacylglycerol lipase inhibitor screening assay kit from Cayman Chemical was used to measure the MAGL potency for the compounds in Tables A-1, A-2, A-3.
# Cayman's Monoacylglycerol Lipase Inhibitor Screening Assay provides a method for screening human MAGL inhibitors. MAGL hydrolyzes 4-nitrophenylacetate resulting in a yellow product, 4-nitrophenol, with an absorbance of 405-412 nm.
# MAGL Inhibition was measured by the following assay. Monoacylglycerol Lipase (MAGL) inhibition was measured using recombinant MAGL enzyme (aa 2-303 RBC, internal preparation) and the substrate 4-Nitrophenyl acetate (4NPA) (Sigma-Aldrich, N8130). Hydrolysis of the substrate in the presence of the enzyme was measured by absorbance at 405 nm. 10 μL of assay buffer (10 mM Tris pH 7.5, 1 mM EDTA, 0.9% DMSO) was added to a black 384-well non-binding plate with clear bottom (Greiner, 781906) for each reaction. Compounds were dispensed using an acoustic liquid handler (Echo, Beckman) at 45 nL (0.1% DMSO). Test compounds and control for MAGL inhibitor JZL-184 (Caymen Chemical, 13158) were tested in 10-concentration IC50 mode with 3-fold serial dilution at a starting concentration of […]. DMSO control wells were included for reference. A 10.8 nM (1.8×) MAGL mix in assay buffer was prepared, with 25 μL added to each reaction well, for a final assay concentration of […]. No enzyme wells received 25 μL of buffer. Plate was incubated at room temperature for 30 minutes. 35 mM solution of 4NPA in methanol was prepared daily A 4.5×4NPA substrate solution was prepared in assay buffer and 10 μL was added to each reaction well, for a final assay concentration of 0.25 mM. Plate was spun for 1 minute at 1000 rpm before measuring absorbance using a CLARIOstar plate reader (BMG Labtech). A kinetic reading at 405 nm was done every minute for 30 minutes. Data was analyzed using the linear slope of the reaction progress curve and the average of the no-enzyme wells (background) was subtracted from the data. The background-subtracted slope data was converted to % activity using the average of wells with enzyme and DMSO vehicle. IC50s were calculated using GraphPad software (Sigmoidal dose response, variable slope equation).
# Table 8 provides potency measurements of MAGL inhibition measured using the Potency Assay of Example A above, with the following modifications described in Table C.
# The number after each letter for potency measurement value indicates the Method from Table C that was used to obtain that measurement value (e.g. “A(1)” indicates an IC50 measurement of <50 nM obtained from the Method 1 of Example A in Table C).
row,IC50 [nM],Structure (SMILES)
1,> 10000,"Cc1cc(C2CC3(C2)CN([C@H]2CCOc4ccccc42)C3)n(-c2ccccc2C)n1 [Compound C4, reference compound]"

# Same assay, conditions: Method 12: Reaction Biology MAGL enzyme, 15 nM; 4NPA substrate; read-out: MAGL Potency (Detection Method)
row,Structure (SMILES),IC50 [nM]
1,"O=C(c1cc(O)ccc1F)N1CC2(CC(n3ncc(C(F)(F)F)c3-c3cccnc3)C2)C1 [Compound 1, (2-fluoro-5-hydroxyphenyl){6-[5-(3-pyridyl)-4-(trifluoromethyl)-1-pyrazolyl]-2-aza-2-spiro[3.3]heptyl}methanone]",150 to 500
2,"O=C(c1cc(O)ccc1F)N1CC2(CC(n3cc(C(F)(F)F)c(-c4cccnc4)n3)C2)C1 [Compound 2, (2-fluoro-5-hydroxyphenyl){6-[3-(3-pyridyl)-4-(trifluoromethyl)-1-pyrazolyl]-2-aza-2-spiro[3.3]heptyl}methanone]",< 50
3,"O=C(c1cc(O)ccc1F)N1CC2(CC(n3nc(C(F)(F)F)cc3-c3cccnc3)C2)C1 [Compound 3, (2-fluoro-5-hydroxyphenyl){6-[5-(3-pyridyl)-3-(trifluoromethyl)-1-pyrazolyl]-2-aza-2-spiro[3.3]heptyl}methanone]",50 to 150
4,"O=C(c1cc(O)ccc1F)N1CC2(CC(n3nc(-c4cccnc4)cc3C(F)(F)F)C2)C1 [Compound 4, (2-fluoro-5-hydroxyphenyl){6-[3-(3-pyridyl)-5-(trifluoromethyl)-1-pyrazolyl]-2-aza-2-spiro[3.3]heptyl}methanone]",< 50
5,"O=C(c1cc(O)ccc1F)N1CC2(CC(n3nc(-c4ccccn4)cc3C(F)(F)F)C2)C1 [Compound 6, (2-fluoro-5-hydroxyphenyl){6-[3-(2-pyridyl)-5-(trifluoromethyl)-1-pyrazolyl]-2-aza-2-spiro[3.3]heptyl}methanone]",150 to 500
6,"O=C(c1cc(O)ccc1F)N1CC2(CC(n3nc(C(F)(F)F)cc3-c3ccncc3)C2)C1 [Compound 7, (2-fluoro-5-hydroxyphenyl){6-[5-(4-pyridyl)-3-(trifluoromethyl)-1-pyrazolyl]-2-aza-2-spiro[3.3]heptyl}methanone]",150 to 500
7,"O=C(c1cc(O)ccc1F)N1CC2(CC(n3nc(-c4ccncc4)cc3C(F)(F)F)C2)C1 [Compound 8, (2-fluoro-5-hydroxyphenyl){6-[3-(4-pyridyl)-5-(trifluoromethyl)-1-pyrazolyl]-2-aza-2-spiro[3.3]heptyl}methanone]",< 50
8,"O=C(c1cc(O)ccc1F)N1CC2(CC(n3nc(C(F)(F)F)cc3-c3ccc(=O)[nH]c3)C2)C1 [Compound 9, 5-(1-(2-(2-fluoro-5-hydroxybenzoyl)-2-azaspiro [3.3]heptan-6-yl)-3-(trifluoromethyl)-1H-pyrazol-5-yl) pyridin-2(1H)-one]",150 to 500
9,"O=C(c1cc(O)ccc1F)N1CC2(CC(n3nc(C(F)(F)F)cc3-c3ccc[nH]c3=O)C2)C1 [Compound 11, 3-(1-(2-(2-fluoro-5-hydroxybenzoyl)-2-azaspiro [3.3]heptan-6-yl)-3-(trifluoromethyl)-1H-pyrazol-5-yl) pyridin-2(1H)-one]",150 to 500
10,O=C(c1cc(O)ccc1F)N1CC2(CC(n3nc(C(F)(F)F)cc3-c3cncc(F)c3)C2)C1 [Compound 13],150 to 500
11,"O=C(c1cc(O)ccc1F)N1CC2(CC(n3nc(-c4cncc(F)c4)cc3C(F)(F)F)C2)C1 [Compound 14, (2-fluoro-5-hydroxyphenyl){6-[3-(5-fluoro-3-pyridyl)-5-(trifluoromethyl)-1-pyrazolyl]-2-aza-2-spiro[3.3]heptyl}methanone]",50 to 150
12,COc1ncccc1-c1cc(C(F)(F)F)nn1C1CC2(C1)CN(C(=O)c1cc(O)ccc1F)C2 [Compound 16],50 to 150
13,"COc1ccc(-c2cc(C(F)(F)F)nn2C2CC3(C2)CN(C(=O)c2cc(O)ccc2F)C3)cn1 [Compound 18, (2-fluoro-5-hydroxyphenyl) (6-(5-(6-methoxypyridin-3-yl)-3-(trifluoromethyl)-1H-pyrazol-1-yl)-2-azaspiro [3.3]heptan-2-yl) methanone]",150 to 500
14,"COc1ncccc1-c1c(C(F)(F)F)cnn1C1CC2(C1)CN(C(=O)c1cc(O)ccc1F)C2 [Compound 19, (2-fluoro-5-hydroxyphenyl){6-[5-(2-methoxy-3-pyridyl)-4-(trifluoromethyl)-1-pyrazolyl]-2-aza-2-spiro[3.3]heptyl}methanone]",< 50

# Second part, the compound after the results:
row,IC50 [nM],Structure (SMILES)
1,150 to 500,COc1ncccc1-c1nn(C2CC3(C2)CN(C(=O)c2cc(O)ccc2F)C3)cc1C(F)(F)F [Compound 20]
2,150 to 500,O=C(c1cc(O)ccc1F)N1CC2(CC(n3ncc(C(F)(F)F)c3-c3cccnc3F)C2)C1 [Compound 21]
3,< 50,"O=C(c1cc(O)ccc1F)N1CC2(CC(n3cc(C(F)(F)F)c(-c4cccnc4F)n3)C2)C1 [Compound 22, (2-fluoro-5-hydroxyphenyl){6-[3-(2-fluoro-3-pyridyl)-4-(trifluoromethyl)-1-pyrazolyl]-2-aza-2-spiro[3.3]heptyl}methanone]"
4,50 to 150,COc1ccc(-c2c(C(F)(F)F)cnn2C2CC3(C2)CN(C(=O)c2cc(O)ccc2F)C3)cn1 [Compound 27]
5,< 50,"COc1ccc(-c2nn(C3CC4(C3)CN(C(=O)c3cc(O)ccc3F)C4)cc2C(F)(F)F)cn1 [Compound 28, (2-fluoro-5-hydroxyphenyl){6-[3-(6-methoxy-3-pyridyl)-4-(trifluoromethyl)-1-pyrazolyl]-2-aza-2-spiro[3.3]heptyl}methanone]"
6,1000 to 5100,"O=C(c1cc(O)ccc1F)N1CC2(CC(n3ncc(C(F)(F)F)c3-c3ccc[nH]c3=O)C2)C1 [Compound 29, 3-(1-{2-(2-fluoro-5-hydroxybenzoyl)-2-aza-6-spiro[3.3]heptyl}-4-(trifluoromethyl)-5-pyrazolyl)-2(1H)-pyridinone]"
7,50 to 150,"O=C(c1cc(O)ccc1F)N1CC2(CC(n3cc(C(F)(F)F)c(-c4ccc[nH]c4=O)n3)C2)C1 [Compound 30, 3-(1-{2-(2-fluoro-5-hydroxybenzoyl)-2-aza-6-spiro[3.3]heptyl}-4-(trifluoromethyl)-3-pyrazolyl)-2(1H)-pyridinone]"
8,1000 to 5100,"O=C(c1cc(O)ccc1F)N1CC2(CC(n3ncc(C(F)(F)F)c3-c3ccc(=O)[nH]c3)C2)C1 [Compound 31, 5-(1-{2-(2-fluoro-5-hydroxybenzoyl)-2-aza-6-spiro[3.3]heptyl}-4-(trifluoromethyl)-5-pyrazolyl)-2(1H)-pyridinone]"
9,50 to 150,O=C(c1cc(O)ccc1F)N1CC2(CC(n3cc(C(F)(F)F)c(-c4ccc(=O)[nH]c4)n3)C2)C1 [Compound 32]
10,1000 to 5100,"O=C(c1ccc(F)cc1OC1CC1)N1CC2(CC(N3C=C(c4ccccc4F)CC3=O)C2)C1 [Compound 33, 1-{2-(2-cyclopropoxy-4-fluorobenzoyl)-2-aza-6-spiro[3.3]heptyl}-3-(o-fluorophenyl)-2-pyrrolin-5-one]"
11,150 to 500,"O=C1CCC(c2c(C(F)(F)F)cnn2C2CC3(C2)CN(C(=O)c2cc(O)ccc2F)C3)CN1 (centres unmarked) [Compound 41, 5-(1-{2-(2-fluoro-5-hydroxybenzoyl)-2-aza-6-spiro[3.3]heptyl}-4-(trifluoromethyl)-5-pyrazolyl)-2-piperidinone]"

# From patent publication US20260345568A1, “INHIBITING MONOACYLGLYCEROL LIPASE (MAGL)” (PSY THERAPEUTICS, INC., priority 2023, published 2026)
